Read-outs that look alike come from different tables or passages of the source.
Columns and labels:
[1] = tested on: Brassica napus (winter rape, BRSNW); experiment: Greenhouse postemergence trial BRSNW; type: in vivo
[2] = tested on: Polygonum convolvulus (wild buckwheat, POLCO); experiment: Greenhouse postemergence trial POLCO; type: in vivo
[3] = tested on: Cirsium arvense (Canadian thistle, CIRAR); experiment: Greenhouse postemergence trial CIRAR; type: in vivo
Procedure: (§1) Seeds of the desired test plant species were planted in a 90:10% v/v (volume/volume) mixture of PRO-MIX® BX (Premier Tech Horticulture, Quakertown, PA, USA) and PROFILE® GREENS GRADE™ (Profile Products LLC, Buffalo Grove, IL, USA) planting mixture, which typically has a pH of 5.2 to 6.2 and an organic matter content of at least 50 percent, in plastic pots with a surface area of 103.2 square centimeters (cm^2). […] The plants were grown for 7-36 days (d) in a greenhouse with an approximate 14-hour (h) photo-period which was maintained at about 23° C. during the day and 22° C. during the night. Nutrients and water were added on a regular basis and supplemental lighting was provided with overhead metal halide 1000-Watt lamps as necessary. The plants were employed for testing when they reached the second or third true leaf stage.
(§2) Emulsifiable concentrates of each of each pyridine carboxylate herbicide (Compound A or Compound B) were prepared at 100 grams acid equivalent per liter (g ae/L). The emulsifiable concentrates also included a safener, cloquintocet-mexyl, at 120 grams active ingredient per liter (g ai/L), unless otherwise noted below. An aliquot of each emulsifiable concentrate was placed in a 25 mL glass vial and diluted with an aqueous mixture of 1.25% (v/v) ACTIROB® B esterified rapeseed oil (Bayer Crop Science, Research Triangle Park, NC, USA) or MSO® Concentrate with LECI-TECH® methylated soybean oil (Loveland Products, Loveland, CO, USA) to obtain concentrated stock solutions at the highest application rate for each herbicide, based upon a 12 milliliter (mL) application volume at a rate of 187 liters per hectare (L/ha). The concentrated stock solutions were further diluted with an aqueous mixture of 1.25% v/v ACTIROB® B or MSO® Concentrate with LECI-TECH® to obtain stock solutions at reduced application rates for each herbicide. Spray solutions of the herbicide combinations (Compound A or Compound B plus synthetic auxin herbicide or auxin transport inhibitor) were prepared by adding weighed amounts or aliquots of the synthetic auxin herbicide or auxin transport inhibitor to the stock solutions of Compound A or Compound B to form 12-mL spray solutions in two-way combinations.
(§3) The spray solutions were applied to the plant material with an overhead Mandel track sprayer equipped with 8002E nozzles calibrated to deliver 187 L/ha over an application area of 0.503 square meters (m^2) at a spray height of 18 inches (43 centimeters (cm)) above the average plant canopy. Control plants were sprayed in the same manner with the solvent blank. All pyridine carboxylate herbicide (component a) application rates are given as “g ae/ha” and all synthetic auxin herbicide or auxin transport inhibitor (component b) application rates are given as “g ai/ha.”
(§4) The treated plants and control plants were placed in a greenhouse as described above and watered by sub-irrigation to prevent wash-off of the test compounds. After 20-22 d, the condition of the test plants as compared with that of the control plants was determined visually and scored on a scale of 0 to 100 percent where 0 corresponds to no injury and 100 corresponds to complete kill.

[4] = tested on: Kochia scoparia (kochia, KCHSC); experiment: Greenhouse postemergence trial KCHSC; type: in vivo
[5] = tested on: Chenopodium album L. (common lambsquarters, CHEAL); experiment: Greenhouse postemergence trial CHEAL; type: in vivo;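 also: greenhouse plants sprayed at second to third true leaf stage, injury rated by eye after 20-22 d versus solvent-blank sprayed controls, 0 = no injury, 100 = complete kill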
[6] = tested on: Amaranthus retroflexus (pigweed, AMARE); experiment: Greenhouse postemergence trial AMARE; type: in vivo;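 also: Greenhouse-grown plants sprayed at second to third true leaf stage, injury rated by eye after 20-22 d versus solvent-blank sprayed controls, 0 = no injury, 100 = complete kill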
[7] = tested on: Matricaria chamomilla (wild chamomile, MATCH); experiment: Greenhouse postemergence trial MATCH; type: in vivo;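 also: greenhouse plants sprayed at second to third true leaf stage, injury rated by eye 20-22 d later versus solvent-blank controls on 0–100 scale, 0 no injury, 100 complete kill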
[8] = tested on: Triticum aestivum (spring wheat, TRZAS); type: in vivo
Procedure: as §1, §2, §3, §4

[9] = tested on: Hordeum vulgare (spring barley, HORVS); type: in vivo
Procedure: as §1, §2, §3, §4

[10] = tested on: Veronica hederifolia (ivyleaf speedwell, VERHE); experiment: Greenhouse postemergence trial VERHE; type: in vivo; settings: Compound B 10 g/ha (Table 39)
[11] = tested on: Veronica persica (bird's-eye speedwell, VERPE); experiment: Greenhouse postemergence trial VERPE; type: in vivo; settings: Compound B 10 g/ha (Table 39)
Procedure: as §1, §2, §3, §4

[12] = tested on: Papaver rhoeas (corn poppy), herbicide-resistant (PAPRH-R); experiment: Greenhouse postemergence trial PAPRH-R; type: in vivo
Procedure: as §1, §2, §3, §4

[13] = tested on: Stellaria media (chickweed, STEME); experiment: Greenhouse postemergence trial STEME; type: in vivo
Procedure: as §1, §2, §3, §4

[14] = tested on: Matricaria discoidea (pineapple weed, MATMT); experiment: Greenhouse postemergence trial MATMT; type: in vivo
[15] = tested on: Rumex obtusifolius (broad-leaf dock, RUMOB); experiment: Greenhouse postemergence trial RUMOB; type: in vivo
Procedure: as §1, §2, §3, §4

[16] = tested on: Abutilon theophrasti (velvetleaf, ABUTH); experiment: Greenhouse postemergence trial ABUTH; type: in vivo
[17] = tested on: Glycine max (volunteer soybean, GLXMA); experiment: Greenhouse postemergence trial GLXMA; type: in vivo
Procedure: as §1, §2, §3, §4

[18] = tested on: Helianthus annuus (common sunflower, HELAN); experiment: Greenhouse postemergence trial HELAN; type: in vivo
Procedure: as §1, §2, §3, §4

[19] = tested on: Ipomoea hederacea (ivyleaf morningglory, IPOHE); experiment: Greenhouse postemergence trial IPOHE; type: in vivo
Procedure: as §1, §2, §3, §4

[20] = tested on: Viola tricolor (wild pansy, VIOTR); experiment: Greenhouse postemergence trial VIOTR;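 also: greenhouse plants sprayed at second to third true leaf stage, injury rated visually after 20-22 d against solvent-blank sprayed controls, 0 meaning no injury and 100 complete kill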

## C#CCOC(=O)c1nc(-c2ccc3cc[nH]c3c2F)c(F)c(N)c1Cl [Compound B, propargyl 4-amino-3-chloro-5-fluoro-6-(7-fluoro-1H-indol-6-yl)pyridine-2-carboxylate]
[1]; Brassica napus, post-emergence, BRSNW, applied alone, 10 g/ha, read-out: % visual injury, Obs
  plant injury at 10 g/ha: 73%
[1]; Compound B 10 g/ha (Table 36)
  BRSNW % visual injury Obs: 73%
[1]; Compound B 10 g/ha (Table 37)
  BRSNW % visual injury Obs: 73%
[1]; Compound B 10 g/ha (Table 39)
  BRSNW % visual injury Obs: 93%
[2]; Compound B 10 g/ha (Table 36)
  POLCO % visual injury Obs: 97%
[2]; Compound B 10 g/ha (Table 40)
  POLCO % visual injury Obs: 90%
[2]; Compound B 10 g/ha (Table 41)
  POLCO % visual injury Obs: 90%
[3]; Compound B 10 g/ha (Table 36)
  CIRAR % visual injury Obs: 25%
[3]; Compound B 10 g/ha (Table 37)
  CIRAR % visual injury Obs: 25%
[3]; Compound B 10 g/ha (Table 40)
  CIRAR % visual injury Obs: 55%
[3]; Compound B 10 g/ha (Table 41)
  CIRAR % visual injury Obs: 55%
[4]; Compound B 10 g/ha (Table 40)
  KCHSC % visual injury Obs: 73%
[4]; Compound B 10 g/ha (Table 41)
  KCHSC % visual injury Obs: 73%
[5]; Compound B 10 g/ha (Table 40)
  CHEAL % visual injury Obs: 93%
[5]; Compound B 10 g/ha (Table 41)
  CHEAL % visual injury Obs: 93%
[6]; AMARE, applied alone, 10 g/ha
  % visual injury, Obs: 84%
[6]; Compound B 10 g/ha (Table 36)
  AMARE % visual injury Obs: 84%
[6]; Compound B 10 g/ha (Table 40)
  AMARE % visual injury Obs: 73%
[6]; Compound B 10 g/ha (Table 41)
  AMARE % visual injury Obs: 73%
[7]; Compound B 10 g/ha (Table 39)
  MATCH % visual injury Obs: 20%
[7]; MATCH, applied alone, 10 g/ha
  % visual injury, Obs: 18%
[8]; Compound B 10 g/ha (Table 36)
  TRZAS % visual injury Obs: 0%
[8]; Compound B 10 g/ha (Table 37)
  TRZAS % visual injury Obs: 0%
[8]; TRZAS, applied alone, 10 g/ha
  % visual injury, Obs: 0%
[9]; Compound B 10 g/ha (Table 36)
  HORVS % visual injury Obs: 0%
[9]; Compound B 10 g/ha (Table 37)
  HORVS % visual injury Obs: 0%
[9]; HORVS, applied alone, 10 g/ha
  % visual injury, Obs: 0%
[10]
  VERHE % visual injury Obs: 70%
[11]
  VERVE % visual injury Obs: 80%
[12]; Compound B 10 g/ha (Table 38)
  PAPRH-R % visual injury Obs: 95%
[12]; Compound B 10 g/ha (Table 39)
  PAPRH-R % visual injury Obs: 95%
[13]; Compound B 10 g/ha (Table 40)
  STEME % visual injury Obs: 90%
[13]; Compound B 10 g/ha (Table 41)
  STEME % visual injury Obs: 90%
[14]; Compound B 10 g/ha (Table 38)
  MATMT % visual injury Obs: 20%
[14]; Compound B 10 g/ha (Table 39)
  MATMT % visual injury Obs: 20%
[15]; Compound B 10 g/ha (Table 40)
  RUMOB % visual injury Obs: 15%
[15]; Compound B 10 g/ha (Table 41)
  RUMOB % visual injury Obs: 15%
[16]; Compound B 10 g/ha (Table 40)
  ABUTH % visual injury Obs: 68%
[16]; Compound B 10 g/ha (Table 41)
  ABUTH % visual injury Obs: 68%
[17]; Compound B 10 g/ha (Table 40)
  GLXMA % visual injury Obs: 73%
[17]; Compound B 10 g/ha (Table 41)
  GLXMA % visual injury Obs: 73%
[18]; Compound B 10 g/ha (Table 40)
  HELAN % visual injury Obs: 100%
[18]; Compound B 10 g/ha (Table 41)
  HELAN % visual injury Obs: 100%
[19]; Compound B 10 g/ha (Table 40)
  IPOHE % visual injury Obs: 0%
[19]; Compound B 10 g/ha (Table 41)
  IPOHE % visual injury Obs: 0%
[20]; Compound B 10 g/ha (Table 40)
  VIOTR % visual injury Obs: 8%
[20]; Compound B 10 g/ha (Table 41)
  VIOTR % visual injury Obs: 8%
